Experimental data taken from ChEMBL document CHEMBL1133266, “Effects of 2-(substituted-sulfanyl)-3,5-dihydro-imidazole-4-one and 2-(substituted-sulfanyl)-1H-imidazole-4,5-dione derivatives on serum HDL-cholesterol” (2000).

The compounds below were run on Rattus norvegicus (assay: Compound was evaluated for increase of high density lipoprotein cholesterol (HDL-C) in cholesterol fed male rats after treatment for 8 days at a dose of 80 mg/kg/day; Average % HDL-C change in 6 animals).
Format: functional

Q: With `CCSC1=NCC(=O)N1c1ccc(F)cc1` as the compound, how does the Change read?
A: The Change was 140%.

The compounds below were run on Rattus norvegicus (assay: Compound was evaluated in vivo for the increase of very low density lipoprotein cholesterol (VLDL-C) in cholesterol fed male rats).
Format: functional

Q: With `CCSC1=NCC(=O)N1c1ccccc1C` as the compound, how does the Increase read?
A: Its Increase is 78%.

Each compound was assayed on Rattus norvegicus (assay: Increase of high density lipoprotein cholesterol (HDL-C) in cholesterol fed male rats after treatment for 8 days at a dose of 100 mg/kg/day; Average % HDL-C change in 6 animals).
Format: functional

Q: For `CCSC1=NC(=O)C(=O)N1c1ccccc1C`, which Change is on record?
A: Its Change is 48%.

Q: How did the Change turn out when `CCSC1=NCC(=O)N1c1cccc(Cl)c1C` was run?
A: The Change was 26%.

Q: With `CCSC1=NCC(=O)N1c1ccccc1C` as the compound, how does the Change read?
A: Its Change is 139%.

Q: Which Change does the source give for `CCSC1=NCC(=O)N1c1cc(F)ccc1C` here?
A: The Change was 32%.

Q: For `CCSC1=NCC(=O)N1c1ccc(C)c(Cl)c1`, which Change is on record?
A: The Change was 45%.

Q: `CCSC1=NCC(=O)N1c1c(Cl)cccc1Cl` was tested. Which Change did it give?
A: The Change was 169%.

Q: For `CCSC1=NCC(=O)N1c1c(C)cccc1C`, which Change is on record?
A: The Change was 75%.

Q: For `CCSC1=NCC(=O)N1c1ccccc1Cl`, which Change is on record?
A: The Change was 74%.

Q: How did the Change turn out when `CCSC1=NCC(=O)N1c1ccc(Cl)cc1C` was run?
A: Its Change is 39%.

Q: How did the Change turn out when `Cc1ccc(Cl)cc1N1C(=O)CN=C1SCc1ccccc1` was run?
A: The Change was 102%.

Q: For `CCSC1=NCC(=O)N1c1cc(Cl)ccc1OC`, which Change is on record?
A: The Change was 66%.

Q: How did the Change turn out when `CCSC1=NC(=O)C(=O)N1c1cc(Cl)ccc1C` was run?
A: Its Change is 85%.

Q: How did the Change turn out when `CCSC1=NCC(=O)N1c1cc(Cl)ccc1C` was run?
A: Its Change is 153%.

Q: `CCSC1=NC(C)C(=O)N1c1cc(Cl)ccc1C` (stereo not drawn) was tested. Which Change did it give?
A: Its Change is 211%.

Q: Which Change does the source give for `CCSC1=NCC(=O)N1c1ccccc1` here?
A: Its Change is 89%.

Q: For `CCSC1=NCC(=O)N1c1c(C)cccc1Cl`, which Change is on record?
A: Its Change is 71%.
